Assay results published in PMC2648833 (Biochemistry, 2008).

Key:
Experiment in all cases: […] release, TLC
Format in all cases: biochemical
Conditions in all cases: labelled compound; 1 mM ATP, 2 mM MgCl2, salmon sperm DNA, Tris-HCl pH 8.0, 37 °C
[1] = molecular target: UvrD2 (MsmUvrD2), full-length (Mycolicibacterium smegmatis, UniProt A0QTT0)
[2] = molecular target: UvrD2 (MsmUvrD2), full-length (Mycolicibacterium smegmatis, UniProt A0QTT0, C614A/C617A)
UvrD2-(1-630) (ΔHRDC) = UvrD2-(1-630) (ΔHRDC) (Mycolicibacterium smegmatis, UniProt A0QTT0)

Nc1ncnc2c1ncn2[C@@H]1O[C@H](COP(=O)(O)OP(=O)(O)OP(=O)(O)O)[C@@H](O)[C@H]1O [ATP] was tested. Which “32Pi release, TLC” value [1] did it give?
The value was “The two proteins displayed virtually identical specific activity for ATP hydrolysis”.

What about the “32Pi release, TLC” value [2] of the same compound?
The value was “The paired cysteine mutations had no deleterious effect on DNA-dependent ATPase specific activity”.

What about the “32Pi release, TLC” value (UvrD2-(1-630) (ΔHRDC)) of the same compound?
Its value is “The two proteins displayed virtually identical specific activity for ATP hydrolysis”.
